# ChEMBL document CHEMBL1158064, “Depsidones from the endophytic fungus BCC 8616” (J Nat Prod, 2006)
# Key:
# [1] = Cytotoxicity against human BC cells by colorimetric method; assay type: functional, cell-based
# [2] = tested on: KB; test: Cytotoxicity against human KB cells by colorimetric method; assay type: functional, cell-based
structure (smiles),measurement,setting,value
C/C=C(\C)c1cc(O)c(C)c2c1Oc1c(CO)c(O)cc(/C(C)=C/C)c1C(=O)O2,IC50,[1],> 5 µg/mL
same,IC50,[2],> 5 µg/mL
C/C=C(\C)c1cc(O)c(C)c2c1Oc1c(C=O)c(O)cc(/C(C)=C/C)c1C(=O)O2,IC50,[1],4.1 µg/mL
same,IC50,[2],6.5 µg/mL
C/C=C(\C)c1cc(O)c(C)c2c1Oc1c(COC)c(O)cc(/C(C)=C/C)c1C(=O)O2,IC50,[1],> 5 µg/mL
same,IC50,[2],> 5 µg/mL
C/C=C(\C)c1cc(OC)c(C)c2c1Oc1c(CO)c(O)cc(/C(C)=C/C(=O)O)c1C(=O)O2 [AURANTICIN A],IC50,[1],> 5 µg/mL
same,IC50,[2],> 5 µg/mL
COc1cccc2c1C(=O)c1c(O)c3c(c(O)c1C2=O)C[C@@](O)(C(=O)CO)C[C@@H]3O[C@H]1C[C@H](N)[C@H](O)[C@H](C)O1 [DOXORUBICIN],IC50,[1],0.17 µg/mL
Cc1c2ccncc2c(C)c2c1[nH]c1ccccc12 [ELLIPTECINE],IC50,[1],0.14 µg/mL
same,IC50,[2],0.21 µg/mL
